Measured values taken from US7858635B2 (priority 2005, dated 2010).

How the values were obtained:
M1 muscarinic receptor = molecular target: T1, M1 muscarinic receptor (Homo sapiens, UniProt P11229); test: Functional mobilization of intracellular calcium (FLIPR, Fluo-3), M1-CHO cells; format: cell-based; conditions: for Emax: compound nos. 455-509, 100% efficacy is the maximum response obtained with the Carbachol control, read-out: M1 Efficacy; for M1 Activity: compounds 455-509
T1 construct: expressed in transfected cells; host or cells: CHO cells (M1-CHO, under zeocin and G418 selection)
T1 sequence (P11229 1-460): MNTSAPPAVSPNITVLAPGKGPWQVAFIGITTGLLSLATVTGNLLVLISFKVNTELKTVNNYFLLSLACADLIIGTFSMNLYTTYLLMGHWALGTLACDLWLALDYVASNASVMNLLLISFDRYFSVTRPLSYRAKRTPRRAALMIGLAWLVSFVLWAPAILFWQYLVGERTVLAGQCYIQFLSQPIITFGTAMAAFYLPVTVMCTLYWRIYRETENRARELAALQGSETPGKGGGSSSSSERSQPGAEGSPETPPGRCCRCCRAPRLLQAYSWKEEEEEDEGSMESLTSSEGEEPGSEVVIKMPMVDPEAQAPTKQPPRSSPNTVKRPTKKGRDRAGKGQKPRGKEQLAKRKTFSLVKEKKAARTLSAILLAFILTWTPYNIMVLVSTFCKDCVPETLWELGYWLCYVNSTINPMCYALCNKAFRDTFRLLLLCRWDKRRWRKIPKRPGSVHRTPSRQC
Outline: (§1)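 Intracellular calcium was tracked by fluorescence (488/540 nm) over 60 sec after compound addition to dye-loaded CHO cells expressing the receptor. Inhibitory activity used a 15 min pre-incubation before carbachol at the subtype EC80.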

M4 muscarinic receptor = molecular target: T2, M4 muscarinic receptor (Homo sapiens, UniProt P08173); test: Functional mobilization of intracellular calcium (FLIPR, Fluo-3), M4-CHO cells; format: cell-based; conditions: for Emax: compound nos. 455-509, 100% efficacy is the maximum response obtained with the Carbachol control, read-out: M4 Efficacy; for M4 Activity: compounds 455-509
T2 construct: expressed in transfected cells; host or cells: CHO cells (M4-CHO, under puromycin, zeocin and blasticidin selection)
T2 sequence (P08173 1-479): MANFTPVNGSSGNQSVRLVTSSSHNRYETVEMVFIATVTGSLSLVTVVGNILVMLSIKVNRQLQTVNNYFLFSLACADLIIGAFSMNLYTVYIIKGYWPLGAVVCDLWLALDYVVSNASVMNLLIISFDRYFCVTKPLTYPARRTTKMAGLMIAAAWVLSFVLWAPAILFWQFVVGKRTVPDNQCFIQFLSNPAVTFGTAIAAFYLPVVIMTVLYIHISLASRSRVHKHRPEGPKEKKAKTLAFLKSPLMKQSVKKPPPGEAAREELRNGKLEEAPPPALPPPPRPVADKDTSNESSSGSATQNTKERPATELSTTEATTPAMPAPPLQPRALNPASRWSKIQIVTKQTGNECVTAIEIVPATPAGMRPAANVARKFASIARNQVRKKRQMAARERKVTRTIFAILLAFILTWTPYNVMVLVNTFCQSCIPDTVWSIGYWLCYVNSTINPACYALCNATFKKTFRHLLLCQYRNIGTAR
Outline: as §1

SMILES	Emax (M1 muscarinic receptor)	M1 Activity (M1 muscarinic receptor)	Emax (M4 muscarinic receptor)	M4 Activity (M4 muscarinic receptor)
CCc1nsc(N2CCC(N3CCC4(CC3)C[C@H](N(CC(F)(F)F)C(C)=O)c3ccccc34)CC2)n1 [compound 502]	25 to 100%	++ (activity was measured to be between 2.0 μM and 5.0 μM)	25 to 100%	++ (activity was measured to be between 2.0 μM and 5.0 μM)
CC(=O)N1CC2(CCN(C3CCN(c4cncc(C5CC5)n4)CC3)CC2)c2ccccc21 [compound 503]	< 25%	+++ (activity was measured to be less than or equal to 2.0 μM)	< 25%	++ (activity was measured to be between 2.0 μM and 5.0 μM)
CN(C)C(=O)N1CC2(CCN(C3CCN(c4nccs4)CC3)CC2)c2ccccc21 [compound 504]	25 to 100%	+ (activity was measured to be greater than or equal to 5.0 μM)	25 to 100%	++ (activity was measured to be between 2.0 μM and 5.0 μM)
CCc1nsc(N2CCC(N3CCC4(CC3)C[C@H](N(CCOC)C(C)=O)c3ccccc34)CC2)n1 [compound 505]	> 100%	+++ (activity was measured to be less than or equal to 2.0 μM)	25 to 100%	++ (activity was measured to be between 2.0 μM and 5.0 μM)
CN(C)C(=O)N1CC2(CCN(C3CCN(c4ncns4)CC3)CC2)c2ccccc21 [compound 506]	> 100%	++ (activity was measured to be between 2.0 μM and 5.0 μM)	25 to 100%	++ (activity was measured to be between 2.0 μM and 5.0 μM)
Cc1csc(N2CCC(N3CCC4(CCN(C(=O)N(C)C)c5ccccc54)CC3)CC2)n1 [compound 508]	25 to 100%	++ (activity was measured to be between 2.0 μM and 5.0 μM)	25 to 100%	++ (activity was measured to be between 2.0 μM and 5.0 μM)
CN(C)C(=O)N1CC2(CCN(C3CCN(c4cnc(Br)cn4)CC3)CC2)c2ccccc21 [compound 509]	> 100%	++ (activity was measured to be between 2.0 μM and 5.0 μM)	25 to 100%	++ (activity was measured to be between 2.0 μM and 5.0 μM)
